Ki data for three molecules are collected here from US8278336B2, “Compounds” (Boehringer Ingelheim International GmbH, priority 2007, dated 2012).

The test deals with T1, human CGRP receptor (Homo sapiens, UniProt O60894+Q16602).
T1 construct: SK-N-MC membranes (˜20 μg protein) are incubated for 180 minutes at ambient temperature; endogenous in cells; host or cells: SK-N-MC cells (membrane preparation)
Kind of test: Binding studies with SK-N-MC cells (125I-CGRP displacement on SK-N-MC membranes). The settings on record: 50 pM 125I-iodotyrosyl-CGRP, 180 minutes at ambient temperature. As to the method:
A. Binding Studies with SK-N-MC Cells (Expressing the Human CGRP Receptor)
SK-N-MC membranes (˜20 μg protein) are incubated for 180 minutes at ambient temperature with 50 pM ^125I-iodotyrosyl-Calcitonin-Gene-Related Peptide and increasing concentrations of the test substances in a total volume of […] (assay buffer: 10 mM tris, 50 mM NaCl, 5 mM MgCl2, 1 mM EDTA, pH=7.4). The incubation is ended by rapid filtration through GF/B-glass fibre filters treated with polyethyleneimine (0.1%) using a cell harvester. The protein-bound radioactivity is measured using a gamma counter. Non-specific binding is defined as the bound radioactivity after the presence of 1 μM BIBN4096BS during incubation.
The concentration binding curves are analysed using computer-aided non-linear curve fitting.

As a reminder, the Ki is a measure of affinity in units of concentration, obtained from inhibition or displacement. Low values mean tighter binding, high ones weaker binding.

T1 sequence (Q16602 23-461): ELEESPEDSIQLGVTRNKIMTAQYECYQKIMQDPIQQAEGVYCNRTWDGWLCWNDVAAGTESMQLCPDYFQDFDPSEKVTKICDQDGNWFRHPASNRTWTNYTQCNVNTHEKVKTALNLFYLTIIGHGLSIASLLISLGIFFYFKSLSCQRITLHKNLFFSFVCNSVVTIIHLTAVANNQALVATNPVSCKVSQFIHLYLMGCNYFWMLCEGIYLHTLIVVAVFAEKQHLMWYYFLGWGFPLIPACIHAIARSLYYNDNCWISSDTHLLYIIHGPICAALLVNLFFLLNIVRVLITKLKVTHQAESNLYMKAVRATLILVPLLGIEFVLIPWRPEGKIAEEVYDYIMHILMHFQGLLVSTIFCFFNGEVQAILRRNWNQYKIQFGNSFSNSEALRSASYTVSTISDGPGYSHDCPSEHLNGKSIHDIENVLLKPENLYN
T1 sequence (O60894 27-148): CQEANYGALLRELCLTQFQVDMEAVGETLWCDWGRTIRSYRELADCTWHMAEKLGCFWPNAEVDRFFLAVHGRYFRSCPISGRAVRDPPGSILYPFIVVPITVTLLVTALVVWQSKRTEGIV

`Cn1c(N2CCC(n3c(=O)[nH]c4ncccc43)CC2)cc(C(=O)N2CCc3cc(F)ccc32)cc1=O` [Example 2, 4′-(5-fluoro-2,3-dihydroindole-1-carbonyl)-1′-methyl-4-(2-oxo-2,3-dihydroimidazo[4,5-b]-pyridin-1-yl)-3,4,5,6-tetrahydro-2H,1′H-[1,2′]bipyridinyl-6′-one] yielded a Ki of 480 nM. This counts as sub-micromolar. Under `COc1ccc2c(c1)CCN(C1CCN(c3cc(C(=O)N4CCc5cc(F)ccc54)cc(=O)[nH]3)CC1)C(=O)N2` [Example 3, 3-[4′-(5-fluoro-2,3-dihydroindole-1-carbonyl)-6′-oxo-3,4,5,6,1′,6′-hexahydro-2H-1,2′-bipyridinyl-4-yl]-7-methoxy-1,3,4,5-tetrahydro-1,3-benzodiazepin-2-one] stands 8.4 nM; under `CC1(C)CN(C(=O)c2cc(N3CCC(n4c(=O)[nH]c5ncccc54)CC3)[nH]c(=O)c2)c2ccc(F)cc21` [Example 4, 4′-(5-fluoro-3,3-dimethyl-2,3-dihydroindole-1-carbonyl)-4-(2-oxo-2,3-dihydroimidazo[4,5-b]-pyridin-1-yl)-3,4,5,6-tetrahydro-2H,1′H-[1,2′]bipyridinyl-6′-one], 3.8 nM.
